Reference: patent EP0126348A2, “Composition for rectal administration and method of promoting rectal drug absorption” (priority 1983, dated 1984)
Read-outs that look alike come from different tables or passages of the source. One block for each compound: values may come before it.

Experiments:
[1] = Blood concentration of drug after rectal administration of suppositories to fasted dogs (bioassay); format: in vivo; conditions: rectal suppository, 100 mg in potency
Description: (§1) The suppositories were administered rectally to dogs or rabbits fasted for 24 hours. After administration, blood or urine sampling was conducted at times intervals and the drug concentration in blood or urinary drug excretion was estimated by determining the activity concentration by the bioassay method.

[2] = Urinary excretion of drug after rectal administration of suppositories to fasted rabbits (bioassay); format: in vivo; conditions: rabbit, 100 mg, rectal suppository, 100 mg in potency, read-out: Urinary excretion (0-6 hours)
Description: as §1

[3] = in vivo, base WITEPSOL H-5, additive Na caprate, 3%
[4] = dog, blood, 100 mg, base WITEPSOL H-5, additive Na caprate, 3% NIKKOL MYS-40, 4%, read-out: AUC

Compound: NCC[C@H](O)C(=O)N[C@@H]1C[C@H](N)[C@@H](O[C@H]2O[C@H](CN)[C@@H](O)[C@H](O)[C@H]2O)[C@H](O)[C@H]1O[C@H]1O[C@H](CO)[C@@H](O)[C@H](N)[C@H]1O [Amikacin]
AUC ([1]; dog, in vivo, 100 mg, base WITEPSOL H-15, additive Na caprate, 3% NIKKOL BL-21, 3%, read-out: AUC): 17900 ng·h/mL | AUC ([1]; dog, in vivo, 100 mg, base WITEPSOL H-15, additive None, read-out: AUC): 1000 ng·h/mL | dose excreted at 6 h ([2]; in vivo, base WITEPSOL H-5, additive Na caprate, 3% NIKKOL MYS-40, 4%): 56% | dose excreted at 6 h ([2]; in vivo, base WITEPSOL H-5, additive Na caprate, 3% Sodium carbonate, 4%): 55.5% | dose excreted at 6 h [2, 3]: 35%

Compound: NC[C@H]1O[C@H](O[C@H]2[C@H](O)[C@@H](O[C@H]3O[C@H](CO)[C@@H](O)[C@H](N)[C@H]3O)[C@H](N)C[C@@H]2N)[C@H](N)[C@@H](O)[C@@H]1O [Bekanamycin]
dose excreted at 6 h ([2]; urine, base WITEPSOL W-35, additive Glycerol monostearate, 3% Na caprate, 3%): 48.5% | dose excreted at 6 h ([2]; urine, base WITEPSOL W-35, additive Na caprate, 3% Disodium phosphate,3%): 40% | dose excreted at 6 h ([2]; urine, base WITEPSOL W-35, additive Na caprate, 3%): 30.1%

Compound: CC(C)(O/N=C(\C(=O)N[C@@H]1C(=O)N2C(C(=O)[O-])=C(C[n+]3ccccc3)CS[C@H]12)c1csc(N)n1)C(=O)O [Ceftazidime]
AUC ([1]; dog, in vivo, 100 mg, base WITEPSOL H-5, additive Na caprate, 3% Lysine, 4%, read-out: AUC): 30100 ng·h/mL | AUC ([1]; dog, in vivo, 100 mg, base WITEPSOL H-5, additive Na caprate, 3% Na citrate, 4%, read-out: AUC): 27600 ng·h/mL | AUC ([1]; dog, in vivo, 100 mg, base WITEPSOL H-5, additive Na caprate, 3% Sodium carbonate, 4%, read-out: AUC): 29800 ng·h/mL | AUC ([1]; base WITEPSOL H-5, additive Na caprate, 3% Sodium carbonate, 4%): 30900 ng·h/mL

Compound: CNC[C@@H]1CC[C@@H](N)[C@@H](O[C@H]2[C@H](O)[C@@H](O[C@H]3OC[C@](C)(O)[C@H](NC)[C@H]3O)[C@H](N)C[C@@H]2N)O1 [Micronomicin]
dose excreted at 6 h ([2]; in vivo, base WITEPSOL H-5, additive Na caprate, 3% Arginine Na, 4%): 48.2% | dose excreted at 6 h ([2]; in vivo, base WITEPSOL H-5, additive Na caprate, 3% NIKKOL BL-21, 4%): 50.3% | dose excreted at 6 h [2, 3]: 39.2%

Compound: NC[C@H]1O[C@H](O[C@H]2[C@H](O)[C@@H](O[C@H]3O[C@H](CO)[C@@H](O)[C@H](N)[C@H]3O)[C@H](N)C[C@@H]2N)[C@H](N)C[C@@H]1O [Tobramycin]
dose excreted at 6 h ([2]; in vivo, base WITEPSOL W-35, additive Na caprate, 2% NIKKOL BL-9, 4%): 53.8% | dose excreted at 6 h ([2]; in vivo, base WITEPSOL W-35, additive Na caprate, 2%): 41.6% | dose excreted at 6 h ([2]; in vivo, base WITEPSOL W-35, additive Na caprate, 3% Disodium tatrate, 4% NIKKOL BL-9, 4%): 49.2%

The next lines start with the values.

AUC [1, 4]: 22200 ng·h/mL
Compound: CO/N=C(\C(=O)N[C@@H]1C(=O)N2C(C(=O)O)=C(CSc3nc(=O)c(=O)[nH]n3C)CS[C@H]12)c1csc(N)n1 [Cefatriaxone]

AUC ([1]; dog, blood, 100 mg, base WITEPSOL H-5, additive NIKKOL MYS-40, 4%, read-out: AUC): 1000 ng·h/mL | AUC ([1]; dog, blood, 100 mg, base WITEPSOL H-5, additive Na caprate, 3% NIKKOL BL-21, 4% Disodium hydrogen phosphate, 1%, read-out: AUC): 42000 ng·h/mL | AUC ([1]; dog, blood, 100 mg, base WITEPSOL H-5, additive Na caprate, 3% NIKKOL BL-21, 4%, read-out: AUC): 37000 ng·h/mL | AUC ([1]; dog, blood, 100 mg, base WITEPSOL H-5, additive Na caprate, 3% NIKKOL MYS-40, 4% Sodium carbonate, 4%, read-out: AUC): 39900 ng·h/mL | AUC [1, 4]: 27400 ng·h/mL | AUC ([1]; dog, blood, 100 mg, base WITEPSOL H-5, additive Na caprate, 3% Sodium carbonate, 4%, read-out: AUC): 24400 ng·h/mL | AUC ([1]; dog, blood, 100 mg, base WITEPSOL H-5, additive Na caprate, 3%, read-out: AUC): 14400 ng·h/mL | AUC ([1]; dog, blood, 100 mg, base WITEPSOL H-5, additive None, read-out: AUC): 800 ng·h/mL
Compound: NC[C@@H]1CC[C@@H](N)[C@@H](O[C@H]2[C@H](O)[C@@H](O[C@H]3O[C@H](CO)[C@@H](O)[C@H](N)[C@H]3O)[C@H](N)C[C@@H]2N)O1 [Dibekacin]

dose excreted at 6 h ([2]; urine, base WITEPSOL H-5, additive Na caprate, 3% Lysine, 4%): 48% | dose excreted at 6 h ([2]; urine, base WITEPSOL H-5, additive Na caprate, 3% NIKKOL TO-10M, 4%): 52.6% | dose excreted at 6 h ([2]; urine, base WITEPSOL H-5, additive Na caprate, 3%): 40%
Compound: CCN[C@@H]1C[C@H](N)[C@@H](O[C@H]2OC(CN)=CC[C@H]2N)[C@H](O)[C@H]1O[C@H]1OC[C@](C)(O)[C@H](NC)[C@H]1O [Netilmicin]

dose excreted at 6 h ([2]; urine, base WITEPSOL H-15, additive Na caprate, 2% NIKKOL BL-25, 4%): 51.6% | dose excreted at 6 h ([2]; urine, base WITEPSOL H-15, additive Na caprate, 2%): 30.8% | dose excreted at 6 h ([2]; urine, base WITEPSOL H-15, additive Na caprate, 3% Trisodium phosphate,4%): 55%
Compound: CN[C@@H]1[C@@H](O)[C@@H](O[C@@H]2[C@@H](O)[C@H](O[C@H]3OC(CN)=CC[C@H]3N)[C@@H](N)C[C@H]2N)OC[C@]1(C)O [Sisomicin]

AUC ([1]; base WITEPSOL H-5, additive Na caprate, 3%): 14800 ng·h/mL | AUC ([1]; base WITEPSOL H-5, additive Na caprate, 3% NIKKOL BL-21, 4%): 30000 ng·h/mL | AUC ([1]; base WITEPSOL H-5, additive Na caprate, 3% NIKKOL MYS-40, 4%): 21700 ng·h/mL | AUC ([1]; base WITEPSOL H-5, additive Na caprate, 3% Sodium carbonate, 2%): 21700 ng·h/mL | AUC ([1]; base WITEPSOL H-5, additive None): 1200 ng·h/mL
Compound: Fortimicin
